What was measured:
S1PR1 = S1PR1 (Mus musculus, UniProt O08530); details: mice; by inhibiting tumor vascularization; cited from earlier work
[1] = tested on: Yumm murine melanoma cells; test: SKI-I treatment with or without immune checkpoint antibody in mice with untransfected Yumm tumors; format: in vivo; details: mice harboring Yumm tumors, SKI-I combined with anti-PD-1
Method: Animal experiments were conducted in accordance with national and international policies, and our protocol was approved by the Regional Ethics Committee of Midi-Pyrenees. 3.105 of Yumm cell lines (Untransfected, shCtrl, shSK1 or shSK1(2)) were intradermally injected into the flank of 7-week-old C57BL/6 mice (Charles River, L'Arbresle, France). CD8-deficient C57BL/6 mice were a gift from Prof. J. van Meerwijk (INSERM U1043, Toulouse, France). Tumor volume was calculated using a caliper at the indicated days as described (Albinet, Bats et al. 2014). For combination experiments involving shCtrl or shSK1 Yumm cells, mice were challenged intradermally (i.d.) with 3.105 cells on day 0 on their right flank. Mice were then injected i.p. three times with anti-CTLA-4 (200 μg per mouse on D7 and 100 μg per mouse on D10 and D13), and/or with anti-PD-1 or isotype control antibody (200 μg per mouse on D5, D7 and D10). Tumor volumes were measured every 2-3 days. Anti-CTLA-4 (9H10), anti-PD-1 (RMP1-14) and isotype control (2A3) were purchased from BioXcell.
For SKI-I treatment, 5 days after Yumm or MC38 cell implantation, mice were treated or not with 50 mg/kg SKI-I (N′-[(2-hydroxynaphthalen-1-yl)methylidene]-3-(naphthalen-2-yl)-1H-pyrazole-5-carbohydrazide, Enamine) in 50 μl of a mixture of DMSO (10%), Cremophor (5%), Tween-80 (5%) and glucose (80%) (i.p.). […]

Sequence of S1PR1 (O08530 whole entry): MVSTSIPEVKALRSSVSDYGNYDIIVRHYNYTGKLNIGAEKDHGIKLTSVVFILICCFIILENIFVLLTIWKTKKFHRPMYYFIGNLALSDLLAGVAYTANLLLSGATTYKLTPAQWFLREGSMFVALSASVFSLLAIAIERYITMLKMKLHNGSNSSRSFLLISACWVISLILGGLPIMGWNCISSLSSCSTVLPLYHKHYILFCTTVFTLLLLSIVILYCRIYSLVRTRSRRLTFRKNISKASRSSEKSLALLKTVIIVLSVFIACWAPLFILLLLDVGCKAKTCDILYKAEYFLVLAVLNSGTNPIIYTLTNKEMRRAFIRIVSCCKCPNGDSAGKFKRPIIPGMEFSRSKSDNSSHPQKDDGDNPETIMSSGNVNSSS

SMILES: CCCCCCCCc1ccc(CCC(N)(CO)CO)cc1 [FTY720]
- melanoma progression (S1PR1): reduced melanoma progression

SMILES: O=C(N/N=C/c1c(O)ccc2ccccc12)c1cc(-c2ccc3ccccc3c2)n[nH]1 [SKI-I, N′-[(2-hydroxynaphthalen-1-yl)methylidene]-3-(naphthalen-2-yl)-1H-pyrazole-5-carbohydrazide]
- efficacy of anti-PD-1 (tumor growth) [1]: enhanced the efficacy of anti-PD-1
